Experimental data taken from patent US7456225B1, “Liver protection compounds of the cyclohexenone type from Antrodia camphorata” (Golden Biotechnology Corporation, priority 2007, dated 2008).
Marks after values point to notes of the source that are not given here.

Legend:
Assay type in all cases: in vivo, Sprague-Dawley (SD) rats
[1] = test system: CCl4-induced liver injury in rats; test: Weights of liver, kidney and spleen relative to body weight after CCl4-induced liver injury; settings: CCl4-treated rats, 8 weeks
Description: (§1) The animal model was performed with five-week-old Sprague-Dawley (SD) rats purchased from BioLasco Taiwan Co., Ltd. Healthy rats weighing 220-270 g were chosen for experiment after observing for 2 weeks in the laboratory animal room. The rats were randomly divided into 6 groups (12 rats/group): normal (gp. A); control groups including model control (gp. B) and positive control (gp. C, animals receiving silymarin); treatment groups including animals receiving 300 mg/kg of cyclohexenone (gp. D), 1000 mg/kg of cyclohexenone (gp. E), and 3000 mg/kg of cyclohexenone (gp. F), as indicated in Table 1. Only normal group was not poisoned with CCl4. The body weights were recorded to calculate the dosage. […] It helps to remove toxins from liver cells by either neutralizing the toxicity of toxic compounds or competing with the binding sites in liver. It is a potent antioxidant, protects the liver from free radicals. It has been widely studied for treating various types of liver injury in animals and clinical trials. The beneficial effects on liver protection have made silymarin a good medicine for liver diseases and a drug in positive control group for the animal model of liver injury.
(§2) Rats in normal group (group A) were fed with corn oil (Sigma chemical co.) by means of stomach tubes. Carbon tetrachloride (Shimakyu, Osaka, Japan) was administered to groups B to F via stomach tubes twice weekly (every Tuesday and Thursday afternoon) for 8 weeks, at a dose of 2 ml/kg of body weight, diluted with corn oil. Silymarin was prepared with saline in an amount of 200 mg/kg of body weight and was fed to rats of group C via a stomach tube. Cyclohexenone prepared from example 1 was mixed with saline, and fed in the amounts of 300 mg/kg, 1000 mg/kg and 3000 mg/kg of body weight to rats of group D to F via stomach tubes. The total feeding volume was estimated in the ratio of 10 ml/kg of body weight to groups C to F five days a week (every morning) for 8 weeks. The body weights of rats and the amounts of food intake in rats for each group were shown in FIG. 1 and FIG. 2, respectively.
All rats were sacrificed at the end of the 8th week of experiment. The weights of liver, kidney and spleen were recovered and weighted and compared with the body weights to calculate the ratios and observe the effects of cyclohexenone from Antrodia camphorata to CCl4 treatment. All values are expressed as mean ±SD, which were evaluated using One-way Analysis of Variance. Those with significant differences were further tested with the Least Significant Difference Test (LSD) or Student t-test to compare cyclohexenone treatment groups and normal groups, positive control and model groups. P<0.05 was selected as criterion for statistical significance in all cases.

[2] = test system: CCl4-induced liver injury in rats; test: Pathological changes of the liver surface observed with naked eyes; settings: CCl4-treated rats, 8 weeks
Description: as §1, with “The beneficial effects on liver protection have made silymarin a good medicine for liver diseases and a drug in positive control group for the animal model of liver injury.” left out
The pathological changes of the liver surface were examined with naked eyes when the liver was taken out from rats, and then tissue sections were made. […] The pathological changes of liver injury were evaluated under light microscope (Opticphot-2, Nikon, Tokyo, Japan) after stained with the abovementioned solution. […]

[3] = test system: CCl4-induced liver fibrosis in rats; test: Histological evaluation of liver fibrosis (Masson's trichrome, 0-4 scale); settings: for Liver fibrosis score: 0-4 scale, CCl4-treated rats, 8 weeks; for Liver fibrosis +, counts of pathological rats: level 1, portal fibrosis without septa; for Liver fibrosis ++, counts of pathological rats: level 2, incomplete septa; for Liver fibrosis +++, counts of pathological rats: level 3, intact septal fibrosis and bridging; for Liver fibrosis ++++, counts of pathological rats: level 4, complete thick septa, definite cirrhosis
Description: as §1, §2
The pathological changes of the liver surface were examined with naked eyes when the liver was taken out from rats, and then tissue sections were made. Half of each liver lobe was stored at −80° C. for antioxidant enzyme assay to follow up. The rest of liver tissues were fixed in 10% formalin for one week, embedded in paraffin cut into 2 μm sections, and stained with Hematoxyline-eosin (H&E) to visualize the lipid deposition, inflammation, cell necrosis and fibrosis, or stained with Masson's trichromic solution to visualize extracellular matrix and collagen fibers for liver fibrosis development. The pathological changes of liver injury were evaluated under light microscope (Opticphot-2, Nikon, Tokyo, Japan) after stained with the abovementioned solution.
Liver fibrosis was evaluated semiquantitatively according to the scoring methods from Gabriele et al. (Gabriele, B. 1997. Silymarin retards collagen accumulation in early and advanced biliary fibrosis secondary to complete bile duct obliteration in rats. Hepatology 26: 643-649) and Wang et al. (Wang, G. S., Eriksson, L. C., Xia, L., Olsson, J. and Stal, P. 1999. Dietary iron overload inhibits carbon tetrachloride-induced promotion in chemical hepatocarcinogenesis: effects on cell proliferation, apoptosis, and antioxidation. J. Hepatol. 30(4):689-98.). Fibrosis was staged on a 0-4 scale: level 0, no fibrosis, normal liver tissue; level 1, proliferation of collagen, portal fibrosis without septa (proliferation of radiating fiber in central vein or periportal region); level 2, incomplete septa between central vein and periportal region (septa without bridging); level 3, intact septal fibrosis and bridging, many nodules in liver, the septa is thin; and level 4, complete thick septa, definite cirrhosis. The results are shown in FIG. 3 to FIG. 5, and Table 3.

COC1=C(OC)C(O)C(C/C=C(\C)CC/C=C(\C)CCC=C(C)C)C(C)C1=O (stereo not shown) [Cyclohexenone from Antrodia camphorata, 4-hydroxy-2,3-dimethoxy-6-methyl-5(3,7,11-trimethyl-dodeca-2,6,10-trienyl)-cyclohex-2-enone]
kidney to body weight ratio ([1]; cyclohexenone 300 mg/kg): 0.68 ± 0.06 %
liver to body weight ratio ([1]; cyclohexenone 300 mg/kg): 3.29 ± 0.35%
spleen to body weight ratio ([1]; cyclohexenone 300 mg/kg): 0.20 ± 0.05 %
kidney to body weight ratio ([1]; cyclohexenone 1000 mg/kg): 0.69 ± 0.13%
liver to body weight ratio ([1]; cyclohexenone 1000 mg/kg): 3.20 ± 0.47 %
spleen to body weight ratio ([1]; cyclohexenone 1000 mg/kg): 0.22 ± 0.06 %
kidney to body weight ratio ([1]; cyclohexenone 3000 mg/kg): 0.73 ± 0.08 %
liver to body weight ratio ([1]; cyclohexenone 3000 mg/kg): 3.65 ± 0.53 %
spleen to body weight ratio ([1]; cyclohexenone 3000 mg/kg): 0.30 ± 0.10 %
swelling and pathological conditions of liver surface (naked eyes) ([2]; cyclohexenone 3000 mg/kg): slightest condition in swelling and pathological conditions
extents of liver pathological changes (liver surface, naked eyes) ([2]; various amounts of cyclohexenone (300, 1000, 3000 mg/kg), vs model group): significantly weaker than that of model group
Liver fibrosis score ([3]; cyclohexenone 300 mg/kg): 1.8*^a
Liver fibrosis score ([3]; cyclohexenone 300 mg/kg, listed as cyclohexenone from Antrodia camphorata): 1.8
Liver fibrosis score ([3]; cyclohexenone 1000 mg/kg): 2.0*^a
Liver fibrosis score ([3]; cyclohexenone 3000 mg/kg): 2.5*
Liver fibrosis −, counts of pathological rats ([3]; level 0, no fibrosis, cyclohexenone 1000 mg/kg): 2
Liver fibrosis +, counts of pathological rats ([3]; cyclohexenone 300 mg/kg): 6
Liver fibrosis +, counts of pathological rats ([3]; cyclohexenone 1000 mg/kg): 1
Liver fibrosis +, counts of pathological rats ([3]; cyclohexenone 3000 mg/kg): 2
Liver fibrosis ++, counts of pathological rats ([3]; cyclohexenone 300 mg/kg): 4
Liver fibrosis ++, counts of pathological rats ([3]; cyclohexenone 1000 mg/kg): 4
Liver fibrosis ++, counts of pathological rats ([3]; cyclohexenone 3000 mg/kg): 4
Liver fibrosis +++, counts of pathological rats ([3]; cyclohexenone 300 mg/kg): 1
Liver fibrosis +++, counts of pathological rats ([3]; cyclohexenone 1000 mg/kg): 3
Liver fibrosis +++, counts of pathological rats ([3]; cyclohexenone 3000 mg/kg): 3
Liver fibrosis ++++, counts of pathological rats ([3]; cyclohexenone 300 mg/kg): 1
Liver fibrosis ++++, counts of pathological rats ([3]; cyclohexenone 1000 mg/kg): 1
Liver fibrosis ++++, counts of pathological rats ([3]; cyclohexenone 3000 mg/kg): 2
